# Laboratory results published in patent US7384629B2, “Biological control of nematodes with Hirsutella minnesotensis” (Regents of the University of Minnesota, priority 2000, dated 2008).
# Where two headings read alike, the source gives them in different places.
# Assays:
# [1] = tested on: Hirsutella rhossiliensis; settings: for Growth rate mm-in-diam, on agar: named vitamin excluded from medium with all other vitamins; for Growth rate mm-in-diam, on agar / Sporulation 10^3/cm^2, on agar / growth in liquit culture (visual rating): 5 weeks; for Spore germination %, on agar / Sporulation 10^3/cm^2, on agar / growth in liquit culture (visual rating): named vitamin excluded
# [2] = tested on: Heterodera glycines; format: in vivo
# Description: (§1) A field experiment was conducted at one site in Waseca in 1998. Fungi used in this study included three species of egg-parasitic fungi, Verticillium chlamydosporium from Florida, ARF18 from Arkansas, and Cylindrocarpon destructans from Minnesota, and two species of juvenile-parasitic fungi, Hirsutella rhossiliensis and Hirsutella minnesotensis from Minnesota. The fungi were cultured on corn-grits, applied in furrow and mixed into soil. Additionally, aldicarb (nematicide) and lorsban (insecticide) were included for a comparison purpose. Plots applied with fungal culture medium, without addition of the culture medium, and plots with a resistant cultivar Pioneer 9234 were included as controls. Each plot consisted of two rows with row spacing of 30 inches and row length of 15 feet. The plots were separated by four rows without application of agents. Four replicates were used. Nematode egg density at planting, and egg density and juvenile density 2 months after planting and at harvest were determined. […] Levels of fungal parasitism of nematode eggs and juveniles were measured 2 months after planting and at harvest.
# Other procedures applied in 2000 were the same as used in 1999.
# [3] = tested on: soybean cyst nematode; assay: 1998 field trial (Waseca): SCN population, fungal parasitism, soybean growth; format: in vivo, Heterodera glycines
# Description: as §1
# [4] = tested on: Hirsutella rhossiliensis; assay: Effect of nitrogen source on growth, sporulation and spore germination; settings: for Growth mm-in-diam, on agar: nitrogen source 0.3296 g/L nitrogen; for Growth mm-in-diam, on agar / Sporulation 10^3/cm^2, on agar / growth in liquit culture (visual rating): 5 weeks; for Spore germination %, on agar / Sporulation 10^3/cm^2, on agar / growth in liquit culture (visual rating): nitrogen source
structure (smiles),measurement,setting,value
CC(C)(CO)C(O)C(=O)NCCC(=O)O (racemic) [DL-pantothenic acid],"Growth rate mm-in-diam, on agar",[1]; isolate ATCC46487,39.5 mm-in-diam
same,"Growth rate mm-in-diam, on agar",[1]; isolate JA16-1,18.8 mm-in-diam
same,"Growth rate mm-in-diam, on agar",[1]; isolate OWVT-1,29.3 mm-in-diam
same,"Spore germination %, on agar",[1]; isolate ATCC46487,72.2%
same,"Sporulation 10^3/cm^2, on agar",[1]; isolate ATCC46487,28.6 10^3/cm^2
same,"Spore germination %, on agar",[1]; isolate JA16-1,88.9%
same,"Sporulation 10^3/cm^2, on agar",[1]; isolate JA16-1,17.1 10^3/cm^2
same,growth in liquit culture (visual rating),[1]; isolate JA16-1,I
same,"Spore germination %, on agar",[1]; isolate OWVT-1,55.6%
same,"Sporulation 10^3/cm^2, on agar",[1]; isolate OWVT-1,9.9 10^3/cm^2
"CNC(=O)O/N=C/C(C)(C)SC [Aldicarb, aldicarb]","% J2 parasitizd, Midseason",[2]; in vivo,12.9a %
same,"Eggs/100 cc soil, At harvest",[2]; in vivo,"13,975b Eggs/100 cc soil"
same,"Eggs/100 cc soil, Midseason",[2]; in vivo,"1,166bc Eggs/100 cc soil"
same,"J2/100 cc soil, Midseason",[2]; in vivo,141bc
same,Yield bu/A,"[2]; soybean, 2000 field plots, means of four replicates",55.5a bu/A
same,"% J2 parasitized, End season",[3]; in vivo,4%
same,"% J2 parasitized, Midseason",[3]; in vivo,0%
same,"Egg population, At planting, Eggs/100 cm^3 soil",[3]; in vivo,772 Eggs/100 cm^3 soil
same,"Egg population, End season, % Reduction",[3]; in vivo,64%
same,"Egg population, End season, Eggs/100 cm^3 soil",[3]; in vivo,"4,788 Eggs/100 cm^3 soil"
same,"Egg population, Midseason, % Reduction",[3]; in vivo,58%
same,"Egg population, Midseason, Eggs/100 cm^3 soil",[3]; in vivo,"1,200 Eggs/100 cm^3 soil"
same,"Juvenile (J2) population, End season, % Reduction",[3]; in vivo,66%
same,"Juvenile (J2) population, End season, J2/100 cm^3 soil",[3]; in vivo,98
same,"Juvenile (J2) population, Midseason, % Reduction",[3]; in vivo,54%
same,"Juvenile (J2) population, Midseason, J2/100 cm^3 soil",[3]; in vivo,129
same,Plant growth: Emergence rate (%),[3]; in vivo,88.4%
same,Reproduction rate Pf/Pi,[3]; in vivo,6.5
same,Reproduction rate Pf/Pm,[3]; in vivo,4.5
same,Reproduction rate Pm/Pi,[3]; in vivo,1.6
same,Plant growth: Yield (Bul/Acre),"[3]; soybean, 1998 field plots, 1200 g ai/acre",23.0 Bul/Acre
Nc1nc2ncc(CNc3ccc(C(=O)N[C@@H](CCC(=O)O)C(=O)O)cc3)nc2c(=O)[nH]1 [Folic acid],"Growth rate mm-in-diam, on agar",[1]; isolate ATCC46487,39.3 mm-in-diam
same,"Growth rate mm-in-diam, on agar",[1]; isolate JA16-1,19.7 mm-in-diam
same,"Growth rate mm-in-diam, on agar",[1]; isolate OWVT-1,28.7 mm-in-diam
same,"Spore germination %, on agar",[1]; isolate ATCC46487,82.2%
same,"Sporulation 10^3/cm^2, on agar",[1]; isolate ATCC46487,59.7 10^3/cm^2
same,"Spore germination %, on agar",[1]; isolate JA16-1,87.8%
same,"Sporulation 10^3/cm^2, on agar",[1]; isolate JA16-1,24.2 10^3/cm^2
same,growth in liquit culture (visual rating),[1]; isolate JA16-1,I
same,"Spore germination %, on agar",[1]; isolate OWVT-1,61.1%
same,"Sporulation 10^3/cm^2, on agar",[1]; isolate OWVT-1,15.4 10^3/cm^2
N[C@@H](Cc1ccccc1)C(=O)O [L-Phenylalanine],"Growth mm-in-diam, on agar",[4]; isolate ATCC46487,34.3 mm-in-diam
same,"Growth mm-in-diam, on agar",[4]; isolate JA16-1,11.7 mm-in-diam
same,"Growth mm-in-diam, on agar",[4]; isolate OWVT-1,17.5 mm-in-diam
same,"Spore germination %, on agar",[4]; isolate ATCC46487,77.8%
same,"Sporulation 10^3/cm^2, on agar",[4]; isolate ATCC46487,7.9 10^3/cm^2
same,"Spore germination %, on agar",[4]; isolate JA16-1,86.7%
same,"Sporulation 10^3/cm^2, on agar",[4]; isolate JA16-1,79.0 10^3/cm^2
same,"Spore germination %, on agar",[4]; isolate OWVT-1,68.3%
same,"Sporulation 10^3/cm^2, on agar",[4]; isolate OWVT-1,15.9 10^3/cm^2
same,growth in liquit culture (visual rating),[4]; isolate OWVT-1,"IV (IV = the pellet diameter larger than 1 cm, but the total volume distribution less than 5 ml)"
N[C@@H](CSSC[C@H](N)C(=O)O)C(=O)O [L-cystine],"Growth mm-in-diam, on agar",[4]; isolate ATCC46487,0.0 mm-in-diam
same,"Growth mm-in-diam, on agar",[4]; isolate JA16-1,0.0 mm-in-diam
same,"Growth mm-in-diam, on agar",[4]; isolate OWVT-1,0.0^ mm-in-diam
same,"Spore germination %, on agar",[4]; isolate ATCC46487,14.4%
same,"Spore germination %, on agar",[4]; isolate JA16-1,4.4%
same,growth in liquit culture (visual rating),[4]; isolate JA16-1,0
same,"Spore germination %, on agar",[4]; isolate OWVT-1,5.6%
O=C(O)[C@@H]1CCCN1 [L-proline],"Growth mm-in-diam, on agar",[4]; isolate ATCC46487,47.2 mm-in-diam
same,"Growth mm-in-diam, on agar",[4]; isolate JA16-1,17.0 mm-in-diam
same,"Growth mm-in-diam, on agar",[4]; isolate OWVT-1,23.8 mm-in-diam
same,"Spore germination %, on agar",[4]; isolate ATCC46487,86.7%
same,"Spore germination %, on agar",[4]; isolate JA16-1,86.7%
same,"Spore germination %, on agar",[4]; isolate OWVT-1,60.0%
same,growth in liquit culture (visual rating),[4]; isolate OWVT-1,"III (III = hyphae growth or colonies form a pellet, less than 2.5 ml)"
N[C@@H](Cc1ccc(O)cc1)C(=O)O [L-tyrosine],"Spore germination %, on agar",[4]; isolate ATCC46487,91.1%
same,"Spore germination %, on agar",[4]; isolate JA16-1,86.7%
same,"Spore germination %, on agar",[4]; isolate OWVT-1,67.8%
O=[N+]([O-])[O-].[Na+] [NaNO3],"Growth mm-in-diam, on agar",[4]; isolate ATCC46487,39.2 mm-in-diam
same,"Growth mm-in-diam, on agar",[4]; isolate JA16-1,15.3 mm-in-diam
same,"Growth mm-in-diam, on agar",[4]; isolate OWVT-1,21.7 mm-in-diam
same,"Spore germination %, on agar",[4]; isolate ATCC46487,86.7%
same,"Sporulation 10^3/cm^2, on agar",[4]; isolate ATCC46487,10.0 10^3/cm^2
same,growth in liquit culture (visual rating),[4]; isolate ATCC46487,"IV (IV = the pellet diameter larger than 1 cm, but the total volume distribution less than 5 ml)"
same,"Spore germination %, on agar",[4]; isolate JA16-1,73.3%
same,"Sporulation 10^3/cm^2, on agar",[4]; isolate JA16-1,6.4 10^3/cm^2
same,growth in liquit culture (visual rating),[4]; isolate JA16-1,I
same,"Spore germination %, on agar",[4]; isolate OWVT-1,55.6%
same,"Sporulation 10^3/cm^2, on agar",[4]; isolate OWVT-1,35.9 10^3/cm^2
